What was measured:
Capivasertib = compound: C1CN(CCC1(C(=O)N[C@@H](CCO)C2=CC=C(C=C2)Cl)N)C3=NC=NC4=C3C=CN4 [Capivasertib]; conditions: max 10 µM
Outline: (§1)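 Cancer cell lines were seeded into 1536-well plates in 7.5 μl medium (DMEM/F12 or RPMI, 10% FBS), held 24 hours at 37°C and 5% CO2, and dosed for 72 hours with final DMSO typically 0.2%. Luminescence from CellTiter-Glo 2.0, scaled between blank-well and DMSO-well means, served as viability. The single-agent IC50 was obtained from dose-response fits with a non-linear mixed effects model, each fit being a two-parameter logistic curve.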

AZD1775 = compound: C=CCn1c(=O)c2cnc(Nc3ccc(N4CCN(C)CC4)cc3)nc2n1-c1cccc(C(C)(C)O)n1 [AZD1775]; conditions: max 3 µM
Outline: as §1

Trametinib = compound: CC(=O)Nc1cccc(-n2c(=O)n(C3CC3)c(=O)c3c(Nc4ccc(I)cc4F)n(C)c(=O)c(C)c32)c1 [Trametinib]; conditions: max 1 µM
Outline: as §1

Palbociclib = compound: CC(=O)c1c(C)c2cnc(Nc3ccc(N4CCNCC4)cn3)nc2n(C2CCCC2)c1=O [Palbociclib]; conditions: max 10 µM
Outline: as §1

AZD1390 = compound: CC(C)n1c(=O)n(C)c2cnc3cc(F)c(-c4ccc(OCCCN5CCCCC5)nc4)cc3c21 [AZD1390]; conditions: max 0.3 µM
Outline: as §1

Venetoclax = compound: CC1(C)CCC(CN2CCN(c3ccc(C(=O)NS(=O)(=O)c4ccc(NCC5CCOCC5)c([N+](=O)[O-])c4)c(Oc4cnc5[nH]ccc5c4)c3)CC2)=C(c2ccc(Cl)cc2)C1 [Venetoclax]; conditions: max 1 µM
Outline: as §1

Dasatinib = compound: CC1=C(C(=CC=C1)Cl)NC(=O)C2=CN=C(S2)NC3=CC(=NC(=N3)C)N4CCN(CC4)CCO [Dasatinib]; conditions: max 2 µM
Outline: as §1

SG3199 = compound: CC1=CN2[C@@H](C1)C=NC3=CC(=C(C=C3C2=O)OC)OCCCCCOC4=C(C=C5C(=C4)N=C[C@@H]6CC(=CN6C5=O)C)OC [SG3199]; conditions: max 0.001 µM
Outline: as §1

AZD2811 = compound: CCN(CCO)CCCOc1ccc2c(Nc3cc(CC(=O)Nc4cccc(F)c4)[nH]n3)ncnc2c1 [AZD2811]; conditions: max 1 µM
Outline: as §1

SN-38 = compound: CCc1c2c(nc3ccc(O)cc13)-c1cc3c(c(=O)n1C2)COC(=O)[C@]3(O)CC [SN-38]; conditions: max 0.3 µM
Outline: as §1

AZD0156 = compound: CN(C)CCCOc1ccc(-c2ccc3ncc4c(c3c2)n(C2CCOCC2)c(=O)n4C)cn1 [AZD0156]; conditions: max 3 µM
Outline: as §1

AZD4320 = compound: CN(CC[C@H](CSC1=CC=CC=C1)NC2=C(C=C(C=C2)S(=O)(=O)NC(=O)C3=CC=C(C=C3)N4CCC(CC4)[C@H](C5=CC=CC=C5C6=CC=C(C=C6)Cl)O)S(=O)(=O)C(F)(F)F)CCO [AZD4320]; conditions: max 1 µM
Outline: as §1

Alisertib = compound: COc1cc(Nc2ncc3c(n2)-c2ccc(Cl)cc2C(c2c(F)cccc2OC)=NC3)ccc1C(=O)O [Alisertib]; conditions: max 10 µM
Outline: as §1

Gefitinib = compound: COc1cc2ncnc(Nc3ccc(F)c(Cl)c3)c2cc1OCCCN1CCOCC1 [Gefitinib]; conditions: max 10 µM
Outline: as §1

Prexasertib = compound: COc1cccc(OCCCN)c1-c1cc(Nc2cnc(C#N)cn2)n[nH]1 [Prexasertib]; conditions: max 1 µM
Outline: as §1

Doxorubicin = compound: COc1cccc2c1C(=O)c1c(O)c3c(c(O)c1C2=O)C[C@@](O)(C(=O)CO)C[C@@H]3O[C@H]1C[C@H](N)[C@H](O)[C@H](C)O1 [Doxorubicin]; conditions: max 1 µM
Outline: as §1

AZD5153 = compound: COc1nnc2ccc(N3CCC(c4ccc(OCCN5CCN(C)C(=O)[C@H]5C)cc4)CC3)nn12 [AZD5153]; conditions: max 1 µM
Outline: as §1

Lapatinib = compound: CS(=O)(=O)CCNCc1ccc(-c2ccc3ncnc(Nc4ccc(OCc5cccc(F)c5)c(Cl)c4)c3c2)o1 [Lapatinib]; conditions: max 10 µM
Outline: as §1

AZD8186 = compound: C[C@@H](Nc1cc(F)cc(F)c1)c1cc(C(=O)N(C)C)cc2c(=O)cc(N3CCOCC3)oc12 [AZD8186]; conditions: max 3 µM
Outline: as §1

Crizotinib = compound: C[C@@H](Oc1cc(-c2cnn(C3CCNCC3)c2)cnc1N)c1c(Cl)ccc(F)c1Cl [Crizotinib]; conditions: max 10 µM
Outline: as §1

Savolitinib = compound: C[C@@H](c1ccc2nccn2c1)n1nnc2ncc(-c3cnn(C)c3)nc21 [Savolitinib]; conditions: max 1 µM
Outline: as §1

AZD6738 = compound: C[C@@H]1COCCN1C2=NC(=NC(=C2)C3(CC3)[S@](=N)(=O)C)C4=C5C=CNC5=NC=C4 [AZD6738]; conditions: max 10 µM
Outline: as §1

AZD5991 = compound: Cc1c2c(nn1C)CSCc1cc(n(C)n1)CSc1cc(c3ccccc3c1)OCCCc1c(C(=O)O)n(C)c3c-2c(Cl)ccc13 [AZD5991]; conditions: max 1 µM
Outline: as §1

AZD7648 = compound: Cc1cc2ncnn2cc1Nc1ncc2c(n1)n(C1CCOCC1)c(=O)n2C [AZD7648]; conditions: max 10 µM
Outline: as §1

Taselisib = compound: Cc1nc(-c2cn3c(n2)-c2ccc(-c4cnn(C(C)(C)C(N)=O)c4)cc2OCC3)n(C(C)C)n1 [Taselisib]; conditions: max 10 µM
Outline: as §1

Selumetinib = compound: Cn1cnc2c(F)c(Nc3ccc(Br)cc3Cl)c(C(=O)NOCCO)cc21 [Selumetinib]; conditions: max 10 µM
Outline: as §1

Olaparib = compound: O=C(c1cc(Cc2n[nH]c(=O)c3ccccc23)ccc1F)N1CCN(C(=O)C2CC2)CC1 [Olaparib]; conditions: max 10 µM
Outline: as §1

| Cell Line | IC50, cell viability 72 h (Capivasertib) [nM] | IC50, cell viability 72 h (AZD1775) [nM] | IC50, cell viability 72 h (Trametinib) [nM] | IC50, cell viability 72 h (Palbociclib) [nM] | IC50, cell viability 72 h (AZD1390) [nM] | IC50, cell viability 72 h (Venetoclax) [nM] | IC50, cell viability 72 h (Dasatinib) [nM] | IC50, cell viability 72 h (SG3199) [nM] | IC50, cell viability 72 h (AZD2811) [nM] | IC50, cell viability 72 h (SN-38) [nM] | IC50, cell viability 72 h (AZD0156) [nM] | IC50, cell viability 72 h (AZD4320) [nM] | IC50, cell viability 72 h (Alisertib) [nM] | IC50, cell viability 72 h (Gefitinib) [nM] | IC50, cell viability 72 h (Prexasertib) [nM] | IC50, cell viability 72 h (Doxorubicin) [nM] | IC50, cell viability 72 h (AZD5153) [nM] | IC50, cell viability 72 h (Lapatinib) [nM] | IC50, cell viability 72 h (AZD8186) [nM] | IC50, cell viability 72 h (Crizotinib) [nM] | IC50, cell viability 72 h (Savolitinib) [nM] | IC50, cell viability 72 h (AZD6738) [nM] | IC50, cell viability 72 h (AZD5991) [nM] | IC50, cell viability 72 h (AZD7648) [nM] | IC50, cell viability 72 h (Taselisib) [nM] | IC50, cell viability 72 h (Selumetinib) [nM] | IC50, cell viability 72 h (Olaparib) [nM] |
| --- | --- | --- | --- | --- | --- | --- | --- | --- | --- | --- | --- | --- | --- | --- | --- | --- | --- | --- | --- | --- | --- | --- | --- | --- | --- | --- | --- |
| RD (Rhabdomyosarcoma) | > 10000 | 1030 | > 1000 | > 10000 | > 300 | > 1000 | > 2000 | > 1 | > 1000 | > 300 | > 3000 | 706 | > 10000 | > 10000 | 465 | > 1000 | 951 | > 10000 | > 3000 | > 10000 | > 1000 | > 10000 | > 1000 | > 10000 | 2270 | > 10000 | > 10000 |
| SU-DHL-5 (B-Cell Non-Hodgkin's Lymphoma) | 305 | 363 | 1000 | 559 | > 300 | > 1000 | 10.8 | > 1 | 9.84 | 1.38 | > 3000 | > 1000 | 359 | > 10000 | 4.89 | 13 | 42.3 | 6610 | 160 | 1650 | > 1000 | 457 | 8.62 | 6580 | 48.6 | > 10000 | 3380 |
| CHSA8926 (Chondrosarcoma) | > 10000 | 1270 | – | > 10000 | > 300 | > 1000 | 60.8 | > 1 | > 1000 | > 300 | > 3000 | > 1000 | > 10000 | > 10000 | > 1000 | 703 | > 1000 | > 10000 | 2240 | 9160 | > 1000 | > 10000 | > 1000 | > 10000 | 1520 | > 10000 | > 10000 |
| MOLM-13 (Acute Myeloid Leukemia) | 1870 | 160 | 24.2 | 605 | > 300 | 23.5 | 932 | > 1 | 18.9 | 3.55 | > 3000 | 6.77 | 52.7 | 4320 | 5.31 | 40 | 28.9 | > 10000 | > 3000 | 1230 | > 1000 | 584 | 46.5 | > 10000 | 6310 | 4040 | 6770 |
| KMS-12-BM (Plasma Cell Myeloma) | 9310 | 329 | > 1000 | 3660 | > 300 | 16.4 | > 2000 | > 1 | > 1000 | 24.8 | > 3000 | 17.3 | 3570 | > 10000 | 17 | 891 | 13.4 | 7080 | > 3000 | 3540 | > 1000 | – | 13.9 | > 10000 | 2430 | > 10000 | > 10000 |
| G-361 (Melanoma) | > 10000 | 1590 | 14.6 | > 10000 | > 300 | > 1000 | > 2000 | > 1 | > 1000 | > 300 | > 3000 | > 1000 | > 10000 | > 10000 | 149 | 816 | 277 | 8000 | > 3000 | 8660 | > 1000 | > 10000 | 306 | > 10000 | 7240 | 1540 | > 10000 |
| HCC1187 (Breast Carcinoma) | > 10000 | 1060 | > 1000 | > 10000 | > 300 | > 1000 | > 2000 | > 1 | 29.4 | > 300 | > 3000 | > 1000 | 114 | > 10000 | 362 | > 1000 | > 1000 | > 10000 | > 3000 | 4570 | > 1000 | > 10000 | 87.7 | > 10000 | > 10000 | > 10000 | > 10000 |
| 8505C (Thyroid Gland Carcinoma) | > 10000 | 1600 | > 1000 | > 10000 | > 300 | > 1000 | > 2000 | > 1 | > 1000 | 23.6 | > 3000 | > 1000 | > 10000 | > 10000 | 829 | 565 | > 1000 | > 10000 | > 3000 | > 10000 | > 1000 | > 10000 | > 1000 | > 10000 | > 10000 | > 10000 | > 10000 |
